Data from paper PMC4512239 (Clinical cancer research : an official journal of the …, 2015).
Entries after “also recorded” stand apart in the source; their conditions may differ.

Assay: phase I safety and tolerability
Assay type: in vivo, human

## CNC(=O)c1cccc(-c2ccc3c(N4CCOC[C@@H]4C)nc(N4CCOC[C@@H]4C)nc3n2)c1 [AZD2014]
Part A 70mg BD solution (N=5)
  Fatigue, Any grade: 3 (60.0) Number (%) of patients
  Fatigue, CTCAE grade 1-2: 2 (40.0) Number (%) of patients
  Hypokalemia, Any grade: 1 (20.0) Number (%) of patients
  Hypokalemia, CTCAE grade 1-2: 1 (20.0) Number (%) of patients
  Hypokalemia, CTCAE grade >=3: 0 Number (%) of patients
  Lower respiratory tract infection, Any grade: 1 (20.0) Number (%) of patients
  Lower respiratory tract infection, CTCAE grade 1-2: 1 (20.0) Number (%) of patients
  Lower respiratory tract infection, CTCAE grade >=3: 0 Number (%) of patients
  Mucositis, Any grade: 5 (100.0) Number (%) of patients
  Mucositis, CTCAE grade 1-2: 3 (60.0) Number (%) of patients
  Mucositis, CTCAE grade >=3: 2 (40.0) Number (%) of patients
  Nausea, Any grade: 3 (60.0) Number (%) of patients
  Nausea, CTCAE grade 1-2: 3 (60.0) Number (%) of patients
  Nausea, CTCAE grade >=3: 0 Number (%) of patients
  Pruritus, Any grade: 0 Number (%) of patients
  Pruritus, CTCAE grade 1-2: 0 Number (%) of patients
  Pruritus, CTCAE grade >=3: 0 Number (%) of patients
  Rash, Any grade: 1 (20.0) Number (%) of patients
  Rash, CTCAE grade 1-2: 0 Number (%) of patients
  Rash, CTCAE grade >=3: 1 (20.0) Number (%) of patients
  Vomiting, Any grade: 0 Number (%) of patients
  Vomiting, CTCAE grade 1-2: 0 Number (%) of patients
  Vomiting, CTCAE grade >=3: 0 Number (%) of patients
Part A 100mg BD solution (N=4)
  Anemia, Any grade: 1 (25.0) Number (%) of patients
  Anemia, CTCAE grade 1-2: 0 Number (%) of patients
  Anemia, CTCAE grade >=3: 1 (25.0) Number (%) of patients
  Back pain, Any grade: 2 (50.0) Number (%) of patients
  Back pain, CTCAE grade 1-2: 2 (50.0) Number (%) of patients
  Back pain, CTCAE grade >=3: 0 Number (%) of patients
  Constipation, Any grade: 1 (25.0) Number (%) of patients
  Constipation, CTCAE grade 1-2: 1 (25.0) Number (%) of patients
  Constipation, CTCAE grade >=3: 0 Number (%) of patients
  Cough, Any grade: 0 Number (%) of patients
  Cough, CTCAE grade 1-2: 0 Number (%) of patients
  Cough, CTCAE grade >=3: 0 Number (%) of patients
  Decreased appetite, Any grade: 4 (100.0) Number (%) of patients
  Decreased appetite, CTCAE grade 1-2: 4 (100.0) Number (%) of patients
  Decreased appetite, CTCAE grade >=3: 0 Number (%) of patients
  Diarrhea, Any grade: 1 (25.0) Number (%) of patients
  Diarrhea, CTCAE grade 1-2: 1 (25.0) Number (%) of patients
  Diarrhea, CTCAE grade >=3: 0 Number (%) of patients
  Dry mouth, Any grade: 1 (25.0) Number (%) of patients
  Dry mouth, CTCAE grade 1-2: 1 (25.0) Number (%) of patients
  Dry mouth, CTCAE grade >=3: 0 Number (%) of patients
  Dyspnea, Any grade: 2 (50.0) Number (%) of patients
  Dyspnea, CTCAE grade 1-2: 2 (50.0) Number (%) of patients
  Dyspnea, CTCAE grade >=3: 0 Number (%) of patients
  Fatigue, Any grade: 4(100.0) Number (%) of patients
  Fatigue, CTCAE grade 1-2: 2 (50.0) Number (%) of patients
  Fatigue, CTCAE grade >=3: 2 (50.0) Number (%) of patients
  Hypokalemia, Any grade: 0 Number (%) of patients
  Hypokalemia, CTCAE grade 1-2: 0 Number (%) of patients
  Hypokalemia, CTCAE grade >=3: 0 Number (%) of patients
  Lower respiratory tract infection, Any grade: 0 Number (%) of patients
  Lower respiratory tract infection, CTCAE grade 1-2: 0 Number (%) of patients
  Lower respiratory tract infection, CTCAE grade >=3: 0 Number (%) of patients
  Mucositis, Any grade: 3 (75.0) Number (%) of patients
  Mucositis, CTCAE grade 1-2: 3 (75.0) Number (%) of patients
  Mucositis, CTCAE grade >=3: 0 Number (%) of patients
  Nausea, Any grade: 4 (100.0) Number (%) of patients
  Nausea, CTCAE grade 1-2: 4 (100.0) Number (%) of patients
  Nausea, CTCAE grade >=3: 0 Number (%) of patients
  Pruritus, Any grade: 0 Number (%) of patients
  Pruritus, CTCAE grade 1-2: 0 Number (%) of patients
  Pruritus, CTCAE grade >=3: 0 Number (%) of patients
  Rash, Any grade: 0 Number (%) of patients
  Rash, CTCAE grade 1-2: 0 Number (%) of patients
  Rash, CTCAE grade >=3: 0 Number (%) of patients
  Vomiting, Any grade: 4 (100.0) Number (%) of patients
  Vomiting, CTCAE grade 1-2: 4 (100.0) Number (%) of patients
  Vomiting, CTCAE grade >=3: 0 Number (%) of patients
RP2D of 50 mg BD
  grade 3 or 4 hyperglycemia: no grade 3 or 4 hyperglycemia was seen
At the MTD (50 mg BD)
  fatigue, most common AEs: 78%
  fatigue, nausea and mucositis equal to or greater than grade 3, patients: 5%
Dose range 25-100 mg
  nature of the dose limiting toxicities: fatigue and mucositis
oral, continuous twice daily dosing
  recommended phase II dose (RP2D): 50 mg BD
oral, continuous twice daily dosing, solution
  maximally tolerated dose (MTD): 50 mg BD
Phase I study
  pneumonitis: no patients were diagnosed with pneumonitis; also recorded: no instances of pneumonitis
Total (N=56)
  Anemia, Any grade: 9 (16.1) Number (%) of patients
  Anemia, CTCAE grade 1-2: 7 (12.5) Number (%) of patients
  Anemia, CTCAE grade >=3: 2 (3.6) Number (%) of patients
  Back pain, Any grade: 9 (16.1) Number (%) of patients
  Back pain, CTCAE grade 1-2: 8 (14.3) Number (%) of patients
  Back pain, CTCAE grade >=3: 1 (1.8) Number (%) of patients
  Constipation, Any grade: 16 (28.6) Number (%) of patients
  Constipation, CTCAE grade 1-2: 16 (28.6) Number (%) of patients
  Constipation, CTCAE grade >=3: 0 Number (%) of patients
  Cough, Any grade: 12 (21.4) Number (%) of patients
  Cough, CTCAE grade 1-2: 12 (21.4) Number (%) of patients
  Cough, CTCAE grade >=3: 0 Number (%) of patients
  Decreased appetite, Any grade: 26 (46.4) Number (%) of patients
  Decreased appetite, CTCAE grade 1-2: 26 (46.4) Number (%) of patients
  Decreased appetite, CTCAE grade >=3: 0 Number (%) of patients
  Diarrhea, Any grade: 23 (41.1) Number (%) of patients
  Diarrhea, CTCAE grade 1-2: 23 (41.1) Number (%) of patients
  Diarrhea, CTCAE grade >=3: 0 Number (%) of patients
  Dry mouth, Any grade: 10 (17.9) Number (%) of patients
  Dry mouth, CTCAE grade 1-2: 10 (17.9) Number (%) of patients
  Dry mouth, CTCAE grade >=3: 0 Number (%) of patients
  Dyspnea, Any grade: 11 (19.6) Number (%) of patients
  Dyspnea, CTCAE grade 1-2: 9 (16.1) Number (%) of patients
  Dyspnea, CTCAE grade >=3: 2 (3.6) Number (%) of patients
  Fatigue, Any grade: 42 (75.0) Number (%) of patients
  Fatigue, CTCAE grade 1-2: 36 (64.3) Number (%) of patients
  Fatigue, CTCAE grade >=3: 6 (10.7) Number (%) of patients
  Hypokalemia, Any grade: 9 (16.1) Number (%) of patients
  Hypokalemia, CTCAE grade 1-2: 8 (14.3) Number (%) of patients
  Hypokalemia, CTCAE grade >=3: 1 (1.8) Number (%) of patients
  Lower respiratory tract infection, Any grade: 9 (16.1) Number (%) of patients
  Lower respiratory tract infection, CTCAE grade 1-2: 7 (12.5) Number (%) of patients
  Lower respiratory tract infection, CTCAE grade >=3: 2 (3.6) Number (%) of patients
  Mucositis, Any grade: 30 (53.6) Number (%) of patients
  Mucositis, CTCAE grade 1-2: 27 (48.2) Number (%) of patients
  Mucositis, CTCAE grade >=3: 3 (5.4) Number (%) of patients
  Nausea, Any grade: 30 (53.6) Number (%) of patients
  Nausea, CTCAE grade 1-2: 28 (50.0) Number (%) of patients
  Nausea, CTCAE grade >=3: 2 (3.6) Number (%) of patients
  Pruritus, Any grade: 13 (23.2) Number (%) of patients
  Pruritus, CTCAE grade 1-2: 13 (23.2) Number (%) of patients
  Pruritus, CTCAE grade >=3: 0 Number (%) of patients
  Rash, CTCAE grade 1-2: 16 (28.6) Number (%) of patients
  Rash, CTCAE grade >=3: 3 (5.4) Number (%) of patients
  Vomiting, Any grade: 16 (28.6) Number (%) of patients
  Vomiting, CTCAE grade 1-2: 15 (26.8) Number (%) of patients
  Vomiting, CTCAE grade >=3: 1 (1.8) Number (%) of patients
